The record followed here is PubChem BioAssay AID1850 (Southern Research Specialized Biocontainment Screening …, 2009).

The assay concerns Salmonella Typhi PhoP-promoter GFP reporter, fluorescence, 4 h. In words: PhoP regulon inhibitors, Salmonella typhi PhoP promoter GFP reporter, confirmatory (AID 1850).

For `CCCC(=O)NC(c1ccco1)c1cc([N+](=O)[O-])c2cccnc2c1O` (stereo unspecified), the IC50 (usually the concentration that gives 50% inhibition) was 38.9 µM.
In the case of `CC(=O)NC(c1ccc(Cl)cc1Cl)c1ccc2cccnc2c1O` (stereo unspecified), the IC50 was 95.5 µM.
For the molecule `COc1ccc(OCC(O)CNc2ccc(Br)cc2)cc1` (stereo unspecified), the IC50 was 5.72 µM.
For `Oc1ccc(CN2CCN(c3ccccc3)CC2)c2cccnc12` the value was 147 µM; for `CCn1cc(C(=O)O)c(=O)c2cc(F)c(N3CCN(C(=S)Nc4ccccc4OC)CC3)cc21`, 11.1 µM.
Regarding `O=C(Nc1nc(-c2ccccn2)cs1)c1ccc(Br)s1`, the IC50 was 23.9 µM.
For `C[C@H]1c2cccc(O)c2C(O)=C2C(=O)C3(O)C(O)=C(C(N)=O)C(=O)[C@@H](N(C)C)[C@@H]3[C@@H](O)[C@@H]21` (stereo partly specified) the value was 2.01 µM; for `CC(=O)NNC(=S)NC(=O)c1ccccc1`, 20.5 µM; for `CCOC(=O)N1CCN(CCC(=O)c2ccc(Cl)cc2)CC1`, 77.2 µM.
For `CCOc1cc(CNCCCN2CCOCC2)cc(Br)c1OCC(=O)Nc1cccc(C(F)(F)F)c1` the value was 84.6 µM; for `O=C(O)c1cc2c(cn1)[nH]c1ccccc12`, 77.7 µM; for `CCOC(=O)c1ccc(CNCc2ccc(Br)cc2)cc1`, 78.5 µM.
For `CN1CCN(Cc2cc(COCc3ccccc3)c3cccnc3c2O)CC1` the value was 37.6 µM; for `CCOc1ccc(-c2cc(C)[n+](CCN(CC)CC)c(-c3ccc(OCC)cc3)c2)cc1`, 37.5 µM.
As to `COc1c(N2CCN(C(=S)NC3CC4CCC3C4)C(C)C2)c(F)cc2c(=O)c(C(=O)O)cn(C3CC3)c12` (stereo unspecified), the IC50 is 6.62 µM.
In the case of `CC1COc2c(N3CCN(C)CC3)c(F)cc3c(=O)c(C(=O)O)cn1c23` (stereo unspecified), the IC50 was 0.31 µM.
With `CCC(/C=C1\Sc2ccc(OC)cc2N1CCO)=C\c1sc2ccc(OC)cc2[n+]1CCO` the figure was 31.8 µM; with `COC12C(COC(N)=O)C3=C(C(=O)C(C)=C(N)C3=O)N1CC1C2N1C` (stereo unspecified), 8.18 µM.
Take `CCCCCCCNC(=O)C1(CC2CC(c3ccc(Cl)cc3)=NO2)CCNCC1` (stereo unspecified): the IC50 was 37.4 µM.
As to `CC[C@H]1OC(=O)[C@H](C)[C@@H](O[C@H]2C[C@@](C)(OC)[C@@H](O)[C@H](C)O2)[C@H](C)[C@@H](O[C@@H]2O[C@H](C)C[C@H](N(C)C)[C@H]2O)[C@](C)(O)C[C@@H](C)[C@@H]2N[C@@H](COCCOC)O[C@H]([C@H]2C)[C@]1(C)O`, the IC50 is 8.02 µM.
For `Cc1cccc2sc(N(CCCN(C)C)C(=O)COc3ccc(Cl)cc3)nc12` the value was 38.6 µM; for `Cc1cc(C2N=C(N)Nc3nc4ccccc4n32)c(C)n1-c1ccccc1Cl` (stereo unspecified), 32 µM; for `C/C(O)=C\c1nc2ccccc2oc1=O`, 44.4 µM.
For the molecule `Fc1ccc([C@@H]2CCNC[C@H]2COc2ccc3c(c2)OCO3)cc1`, the IC50 was 42.9 µM.
For `C#CCOCCOCCOCCNc1nc(N2CCN(C(=O)CCCCCCCCCCNC(=O)Cn3cc(C[C@@H](C)O)nn3)CC2)nc(N2CCN(C(=O)CCCCCCCCCCNC(=O)[C@@H]([C@H](C)CC)n3cc(CCCCCN)nn3)CC2)n1` the value was 142 µM; for `Cc1ccc(NC(=O)CN(C)C2CCCCC2)cc1Br`, 81.2 µM; for `Cc1cc([N+](=O)[O-])nn1CC(=O)N/N=C/c1ccccc1O`, 47.1 µM.
For `Oc1c(Br)cc(Br)cc1C=NCc1ccc(F)cc1` the value was 57.4 µM; for `Cc1cccc(NC2=NC3(CCCCC3)N=C(N)N2)c1`, 36.8 µM; for `Cc1cc(C)c(OCCCCNCc2ccccc2)c(Cl)c1`, 74.6 µM.
With `CNC(=S)N1CCN(c2c(F)cc3c(=O)c(C(=O)O)cn(C4CC4)c3c2OC)CC1C` (stereo unspecified) the figure was 7.83 µM.
In the case of `O=C(Cc1ccc(Br)cc1)c1ccc(O)cc1O`, the IC50 was 119 µM.
For `CCCCCC(CC(=O)NO)C(=O)NC(C(=O)N1CCCC1CO)C(C)C` (stereo unspecified) the value was 15.5 µM.
With `CCOC(=O)N/N=C(/C)c1ccc([N+](=O)[O-])o1` the figure was 53.7 µM; with `[O-][n+]1cccc2c(Br)cc(Br)c(O)c21`, 69.1 µM; with `C=CCn1c(NS(=O)(=O)c2ccccc2)c(S(=O)(=O)c2ccc(C)cc2)c2nc3ccccc3nc21`, 50.4 µM.
